Experimental data taken from patent US6482829B2, “Substituted heterocyclic siprodecane compound active as an antagonist of neurokinin 1 receptor” (Hoffmann-La Roche Inc., priority 2000, dated 2002).

Molecular target: human NK1 receptors (Homo sapiens, UniProt P25103)
Test: Affinity for the NK1 receptor, [3H]substance P displacement binding assay
Conditions: human NK1 receptors in CHO cells (Semliki virus expression system); [3H]substance P 0.6 nM; 60 min at room temperature
Method: The affinity of test compounds for the NK1 receptor was evaluated at human NK1 receptors in CHO cells infected with the human NK1 receptor (using the Semliki virus expression system) and radiolabelled with [^3H]substance P (final concentration 0.6 nM). Binding assays were performed in HEPES buffer (50 mM, pH 7.4) containing BSA (0.04%) leupeptin (8 μg/ml), MnCl2 (3 mM) and phosphoramidon (2 μM). Binding assays consisted of 250 μl of membrane suspension (1.25×10^5 cells/assay tube), […] of buffer of displacing agent and 125 μl of [^3H]substance P. Displacement curves were determined with at least seven concentrations of the compound. The assay tubes were incubated for 60 min at room temperature after which time the tube contents were rapidly filtered under vacuum through GF/C filters presoaked for 60 min with PEI (0.3%) with 2×2 ml washes of HEPES buffer (50 mM, pH 7.4). The radioactivity retained on the filters was measured by scintillation counting. All assays were performed in triplicate in at least 2 separate experiments.

Chain of human NK1 receptors (P25103 whole entry): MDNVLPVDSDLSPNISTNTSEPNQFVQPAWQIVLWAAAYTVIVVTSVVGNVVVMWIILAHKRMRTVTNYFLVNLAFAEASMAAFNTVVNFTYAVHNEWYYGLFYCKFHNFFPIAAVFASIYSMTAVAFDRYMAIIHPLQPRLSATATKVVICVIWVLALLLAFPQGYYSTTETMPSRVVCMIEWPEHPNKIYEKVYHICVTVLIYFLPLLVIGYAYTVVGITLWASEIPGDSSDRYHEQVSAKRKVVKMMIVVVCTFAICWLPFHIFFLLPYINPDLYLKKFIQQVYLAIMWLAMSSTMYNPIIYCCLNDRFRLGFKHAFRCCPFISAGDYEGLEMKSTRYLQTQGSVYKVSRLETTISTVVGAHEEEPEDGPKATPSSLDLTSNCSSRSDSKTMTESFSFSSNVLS

Row | Compound | pKi (affinity to the NK-1 receptor)
1 | Cc1ccccc1N1CN(Cc2cccnc2)C(=O)C12CCN(C(=O)c1cc(C(F)(F)F)cc(C(F)(F)F)c1)CC2 [Example 45, 8-(3,5-Bis-trifluoromethyl-benzoyl)-3-pyridin-3-yl-methyl-1-o-tolyl-1,3,8-triaza-spiro[4.5]decan-4-one] | 8.29
2 | Rac-8-(3,5-Bis-trifluoromethyl-benzoyl)-3-(2-methoxy-ethyl)-2-methyl-1-o-tolyl-1,3,8-triaza-spiro[4.5]decan-4-one [Example 137] | 8.34

Same assay, conditions: human NK1 receptors in CHO cells (Semliki virus expression system); [3H]substance P 0.6 nM; 60 min at room temperature; read-out: pKi (affinity to the NK-1 receptor) (converted)

Row | Compound | Ki [nM]
3 | COc1nc(OC)nc(N2CN(c3ccccc3)C3(CCN(C(=O)c4cc(C(F)(F)F)cc(C(F)(F)F)c4)CC3)C2=O)n1 [Example 6, 8-(3,5-Bis-trifluoromethyl-benzoyl)-3-(4,6-dimethoxy-[1,3,5]triazin-2-yl)-1-phenyl-1,3,8-triaza-spiro[4.5]decan-4-one] | 2.19
4 | O=C(c1cc(C(F)(F)F)cc(C(F)(F)F)c1)N1CCC2(CC1)C(=O)N(c1ncc(Cl)cc1Cl)CN2c1ccccc1 [Example 26, 8-(3,5-Bis-trifluoromethyl-benzoyl)-3-(3,5-dichloro-pyridin-2-yl)-1-phenyl-1,3,8-triaza-spiro[4.5]decan-4-one] | 33.9
5 | COc1nc(OC)nc(N2CN(c3ccc(Cl)c(Cl)c3)C3(CCN(C(=O)c4cc(C(F)(F)F)cc(C(F)(F)F)c4)CC3)C2=O)n1 [Example 39, 8-(3,5-Bis-trifluoromethyl-benzoyl)-1-(3,4-dichloro-phenyl)-3-(4,6-dimethoxy-[1,3,5]triazin-2-yl)-1,3,8-triaza-spiro[4.5]decan-4-one] | 93.3

Continued, values first:

Row | Ki [nM] | Compound
6 | 7.59 | CC1NC(=O)C2(CCN(C(=O)c3cc(C(F)(F)F)cc(C(F)(F)F)c3)CC2)N1c1ccccc1 (racemic) [Example 91, (rac)-8-(3,5-Bis-trifluoromethyl-benzoyl)-2-methyl-1-phenyl-1,3,8-triaza-spiro[4.5]decan-4-one]
7 | 7.59 | Cc1ccccc1C1CNC(=O)C12CCN(C(=O)c1cc(C(F)(F)F)cc(C(F)(F)F)c1)CC2 (racemic) [Example 176, (rac)-8-(3,5-Bis-trifluoromethyl-benzoyl)-4-o-tolyl-2,8-diaza-spiro[4.5]decan-1-one]
8 | 8.32 | Cc1ccccc1N1CN(CCN2CCCC2)C(=O)C12CCN(C(=O)c1cc(C(F)(F)F)cc(C(F)(F)F)c1)CC2 [Example 58, 8-(3,5-Bis-trifluoromethyl-benzoyl)-3-(2-pyrrolidin-1-yl-ethyl)-1-o-tolyl-1,3,8-triaza-spiro[4.5]decan-4-one]
9 | 4.27 | CN1CN(c2ccccc2Cl)C2(CCN(C(=O)c3cc(C(F)(F)F)cc(C(F)(F)F)c3)CC2)C1=O [Example 70, 8-(3,5-Bis-trifluoromethyl-benzoyl)-1-(2-chloro-phenyl)-3-methyl-1,3,8-triaza-spiro[4.5]decan-4-one]
10 | 11 | Cc1ccccc1C1=CN(C)C(=O)C12CCN(C(=O)c1cc(C(F)(F)F)cc(C(F)(F)F)c1)CC2 [Example 170, 8-(3,5-Bis-trifluoromethyl-benzoyl)-2-methyl-4-o-tolyl-2,8-diaza-spiro[4.5]dec-3-en-1-one]

Tested on: not given
Test: not given
Conditions: not given

Row | Compound | melting point [°C]
11 | O=C(c1cc(C(F)(F)F)cc(C(F)(F)F)c1)N1CCC2(CC1)C(=O)NC(=O)N2c1ccccc1Cl | 153 to 154
12 | O=C(c1cc(C(F)(F)F)cc(C(F)(F)F)c1)N1CCC2(CC1)C(=O)NCN2c1ccccc1 [Example 1, 8-(3,5-Bis-trifluoromethyl-benzoyl)-1-phenyl-1,3,8-triaza-spiro[4.5]decan-4-one] | 251

The next lines start with the values.

Row | melting point [°C] | Compound
13 | 212 to 214 | O=C(c1cc(C(F)(F)F)cc(C(F)(F)F)c1)N1CCC2(CC1)C(=O)N(c1cc(Cl)ncn1)CN2c1ccccc1 [Example 61, 8-(3,5-Bis-trifluoromethyl-benzoyl)-3-(6-chloro-pyrimidin-4-yl)-1-phenyl-1,3,8-triaza-spiro[4.5]decan-4-one]
14 | 235 to 236 | O=C(c1cc(C(F)(F)F)cc(C(F)(F)F)c1)N1CCC2(CC1)C(=O)NCN2c1cccc(Cl)c1 [Example 63, 8-(3,5-Bis-trifluoromethyl-benzoyl)-1-(3-chloro-phenyl)-1,3,8-triaza-spiro[4.5]decan-4-one]
15 | 233 to 235 | O=C(c1cc(C(F)(F)F)cc(C(F)(F)F)c1)N1CCC2(CC1)C(=O)NCN2c1ccc(Cl)cc1 [Example 64, 8-(3,5-Bis-trifluoromethyl-benzoyl)-1-(4-chloro-phenyl)-1,3,8-triaza-spiro[4.5]decan-4-one]
16 | 220 to 222 | O=C(c1cc(C(F)(F)F)cc(C(F)(F)F)c1)N1CCC2(CC1)C(=O)NCN2c1ccc(Cl)c(Cl)c1 [Example 65, 8-(3,5-Bis-trifluoromethyl-benzoyl)-1-(3,4-dichloro-phenyl)-1,3,8-triaza-spiro[4.5]decan-4-one]
17 | 164 to 168 | Cc1ccccc1N1CNC(=O)C12CCN(C(=O)c1cc(C(F)(F)F)cc(C(F)(F)F)c1)CC2 [Example 66, 8-(3,5-Bis-trifluoromethyl-benzoyl)-1-o-tolyl-1,3,8-triaza-spiro[4.5]decan-4-one]
18 | 157 to 159 | O=C(c1cc(C(F)(F)F)cc(C(F)(F)F)c1)N1CCC2(CC1)C(=O)NCN2c1ccccc1Cl [Example 67, 8-(3,5-Bis-trifluoromethyl-benzoyl)-1-(2-chloro-phenyl)-1,3,8-triaza-spiro[4.5]decan-4-one]
